{"source": "paper PMC5824344", "about": "(ACS Chemical Biology, 2017)", "system": "DENV2 strain 16681 in primary human MDMΦ", "assay": "DENV primary MDMΦ antiviral assay (infectious titer by plaque assay)", "format": "cell-based, dengue virus", "settings": "Dengue virus, DENV2; dengue-infected MDMΦ, 7 donors; read-out: IC50 for DENV inhibition (infectious virus titer)", "protocol": "each well was scored as either positive (≥ 5 stained cells) or negative. TCID50 values were calculated according to the method of Reed and Muench.8\n5.7 DENV Primary MDMΦ Antiviral Assay\nDENV2 strain 16681 (a gift from Prof. E. Gould, Centre for Ecology and Hydrology, Oxford, United Kingdom) was propagated in the C6/36 cell line. In the antiviral assay, MDMΦ cells (7 donors) were seeded in a 24-well plate at a density of 1× 10^6 cells/well in 1 mL of growth media. The cells were inoculated for 2 h with DENV2 16681 strain at an MOI of 1. […]\nThe infectious DENV titres in supernatants collected were evaluated by plaque assay as described previously.9 Brieﬂy, LLC-MK2 cells were seeded in conﬂuent monolayers in a 12-well plate. Four 10-fold dilutions of each supernatant to be analyzed were prepared in minimum essential media (MEM, Gibco), supplemented with 100 µg mL−1 streptomycin, 100 U mL−1 penicillin and 10% (v/v) FCS. […]\nAfter 1 d, plaques were observed and counted from the underside of the plate by eye. […]\n18 healthy male BALB/c mice (8 – 12 weeks old) weighing between 20 and 35 g were procured from ACTREC, Mumbai, India. […] Temperature and humidity were recorded by an auto-controlled data logging system and maintained at 22± 3◦C and 55± 15% humidity, respectively. […]"}
{"smiles": "Cc1c(C)c2c(c(C)c1OCCCCCN1CC(O)C(O)C(O)C1CO)CCC(C)(CCCC(C)CCCC(C)CCCC(C)C)O2", "note": "(stereo not shown) [Compound 4, 5′-tocopheroxypentyl-DNJ]", "values": [{"measurement": "IC50", "result": 12.7, "unit": "µM"}]}
